# Assay results from patent US5616573A, “Glucocorticoids” (Schering Aktiengesellschaft, priority 1993, dated 1997).
# Where a SMILES comes first, the peptide text is derived from it. The star is where a group is joined. Methylprednisolone(17-OCOEt) = CCC(=O)O[C@]1(C(=O)CO*)CC[C@H]2[C@@H]3C[C@H](C)C4=CC(=O)C=C[C@]4(C)[C@H]3[C@@H](O)C[C@@]21C; X2 = C[C@@H]1C[C@H]2[C@@H]3C[C@H](F)C4=CC(=O)C=C[C@]4(C)[C@H]3[C@@H](O)C[C@]2(C)[C@H]1C(=O)CO*; X1 = C[C@H]1C[C@@H]2[C@H]([C@@H](O)C[C@@]3(C)[C@H]2CC[C@]3(O)C(=O)CO*)[C@@]2(C)C=CC(=O)C=C12; X5 = C[C@]12CCC(=O)C=C1CC[C@@H]1[C@@H]2[C@@H](O)C[C@@]2(C)[C@H]1CC[C@]2(O)C(=O)CO*; Fmoc = O=C(OCC1c2ccccc2-c2ccccc21)*; Boc = CC(C)(C)OC(=O)*
# Tests used:
# Leukocyte Elastase = target: T1, Leukocyte Elastase (Homo sapiens, UniProt P08246); experiment: Cleavage of Glucocorticoid-21-Oligopeptide Esters by Leukocyte Elastase in the lysate of human neutrophilic granulocytes; format: biochemical; conditions: lysate of human neutrophilic granulocytes, 10^6 cells per ml, 1 hour at 37° C.; Fmoc-Ala-Ala-Pro-Val-O-MPP is used as reference
# T1 construct: also pure human sputum elastase (Elastin Products)
# T1 sequence (P08246 30-267): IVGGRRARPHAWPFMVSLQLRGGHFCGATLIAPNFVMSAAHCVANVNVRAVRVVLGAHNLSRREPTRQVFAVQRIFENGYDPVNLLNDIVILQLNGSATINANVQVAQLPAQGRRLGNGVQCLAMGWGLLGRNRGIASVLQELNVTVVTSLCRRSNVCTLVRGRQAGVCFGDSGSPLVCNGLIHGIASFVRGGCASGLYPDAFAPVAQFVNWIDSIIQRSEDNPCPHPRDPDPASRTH
# Procedure: (§1) The homogenate of the skin of male rats (0.1 mol/l of phosphate buffer, pH=7.4) is centrifuged for 20 minutes at 10,000 g. The supernatant is adjusted in phosphate buffer to a protein concentration of 3 mg/ml. The test substances in 20 μl of ethanol are added to 1 ml of this homogenate. The final concentration of the corticoid derivatives is approximately 100 μmol/l. The incubation takes place for different periods at 37° C. At the end of incubation, the samples are extracted three times with 3 ml of chloroform. The combined extracts are evaporated to dryness under nitrogen and taken up with 100 μl of ethanol. The ethanolic solutions are mixed with the same volume of water and the saponification products are separated by HPLC (RP 18, acetonitrile/water-gradient, detection 240 nm). The relative hydrolysis rate is indicated in percent of the hydrolysis rate of the 6α-methylprednisolone-17-propionate-21-acetate.
# Polymorphonuclear granulocytes are isolated from donor blood. The cells are lysed in a density of 10^6 cells per ml. 1 ml each of the lysate is mixed with 20 μl of ethanolic corticoid solution (5 mmol/l) After 1 hour of incubation at 37° C., the samples are extracted three times with 3 ml of chloroform and worked up as described above for HPLC analysis. The cleavage of the prodrugs according to the invention can be inhibited under these test conditions by the addition of the specific elastase inhibitor MeO-succinyl-Ala-Ala-Pro-Val-chloromethylketone to 90%. Furthermore, the compounds are also hydrolyzed by pure human sputum-elastase (elastin products).
# Esterases of Rat Skin = experiment: Cleavage in the Homogenate of Normal Rat Skin (unspecific cleavage by esterases of rat skin); format: in vitro ADME; conditions: percent of hydrolysis rate of 6α-methylprednisolone-17-propionate-21-acetate; approximately 100 μmol/l, pH=7.4, 37° C.
# Procedure: as §1
# rat ear = experiment: Local antiinflammatory action: modified rat ear test according to Tonelli (croton oil); format: in vivo; conditions: topical, * = significant (p < 0.05); for Edema [% inhibition]: ear weight, 16 hours after irritant; for Infiltration [% inhibition]: granulocytic infiltrate (myeloperoxidase and leukocyte-elastase), 16 hours
# Procedure: The antiinflammatory activity of the corticoid-21-oligopeptide esters is performed in a modified rat ear test according to Tonelli. The modifications are based on changes of irritant solution (4% croton oil, 10% DMSO in ethanol), the type of administration (application of the solution with pipette) and the evaluation of the test 16 hours after administration of the irritant solution. At this time, both the inhibition of the edema by measuring the ear weight and the inhibition of the granulocytic infiltrate by measuring the granulocyte marker myeloperoxidase and leukocyte-elastase in the ear homogenate can be determined. The group size was 6 animals in each case.
# [1] = target: T2, rat glucocorticoid receptor (Rattus norvegicus, UniProt P06536); experiment: Binding to the Glucocorticoid Receptor: competitive displacement of tritiated dexamethasone in rat thymus cytosol; conditions: quotient of concentrations of test substance and dexamethasone displacing 50% of labeled dexamethasone; 2 hours at 4° C.; lower KF = better binding
# T2 sequence (P06536 1-795): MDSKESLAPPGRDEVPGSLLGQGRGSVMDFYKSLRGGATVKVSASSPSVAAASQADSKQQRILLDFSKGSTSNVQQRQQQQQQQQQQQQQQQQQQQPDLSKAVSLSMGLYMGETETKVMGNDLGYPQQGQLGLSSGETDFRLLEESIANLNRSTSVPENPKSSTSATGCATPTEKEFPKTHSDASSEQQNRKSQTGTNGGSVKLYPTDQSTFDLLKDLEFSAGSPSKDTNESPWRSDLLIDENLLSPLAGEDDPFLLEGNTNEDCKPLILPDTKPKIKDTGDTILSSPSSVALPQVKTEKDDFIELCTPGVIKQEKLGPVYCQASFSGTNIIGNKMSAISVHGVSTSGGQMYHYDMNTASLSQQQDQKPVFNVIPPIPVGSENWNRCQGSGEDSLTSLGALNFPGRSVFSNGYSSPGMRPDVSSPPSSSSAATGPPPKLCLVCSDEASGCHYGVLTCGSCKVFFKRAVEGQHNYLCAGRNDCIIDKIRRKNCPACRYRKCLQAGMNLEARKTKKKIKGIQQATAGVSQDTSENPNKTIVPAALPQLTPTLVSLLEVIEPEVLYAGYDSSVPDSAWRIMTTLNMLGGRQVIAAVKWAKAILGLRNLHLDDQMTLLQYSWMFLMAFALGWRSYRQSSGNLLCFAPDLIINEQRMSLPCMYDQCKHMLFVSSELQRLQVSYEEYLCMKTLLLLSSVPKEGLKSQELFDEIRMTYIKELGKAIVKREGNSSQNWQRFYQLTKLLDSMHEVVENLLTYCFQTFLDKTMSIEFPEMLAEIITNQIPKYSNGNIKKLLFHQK
# Procedure: The binding of the substances according to the invention to the rat glucocorticoid receptor is determined by competitive displacement of tritiated dexamethasone from the receptor binding. Different concentrations of the glucocorticoid esters are incubated for 2 hours at 4° C. in the presence of a constant concentration of tritium-labeled dexamethasone with rat thymus cytosol. After the incubation time, the non-protein-bound steroids are adsorbed on activated carbon and the activated carbon is centrifuged off. The radioactivity in the supernatant is used as a measurement for the amount of receptor-bound dexamethasone.
# From the measurements, the concentrations of the respective corticoid derivative are calculated, which are necessary to displace 50% of the labeled dexamethasone from the receptor binding. Competition factor (KF) is the quotient of these calculated concentrations for the test substance and that of dexamethasone.
# [2] = concentration 0.003 (unit not given)
# [3] = concentration 0.03 (unit not given)
# [4] = concentration 0.3 (unit not given)
Structure (SMILES),Relative Hydrolysis Rate [%] (Leukocyte Elastase),Relative Hydrolysis Rate [%] (Esterases of Rat Skin),Edema [% inhibition] (rat ear; [2]) [%],Infiltration [% inhibition] (rat ear; [2]) [%],Edema [% inhibition] (rat ear; [3]) [%],Infiltration [% inhibition] (rat ear; [3]) [%],Edema [% inhibition] (rat ear; [4]) [%],Infiltration [% inhibition] (rat ear; [4]) [%],Competition Factor [KF] [1]
"CCC(=O)O[C@]1(C(=O)COC(=O)[C@@H](NC(=O)[C@@H]2CCCN2C(=O)[C@H](C)NC(=O)[C@H](C)NC(=O)OCC2c3ccccc3-c3ccccc32)C(C)C)CC[C@H]2[C@@H]3C[C@H](C)C4=CC(=O)C=C[C@]4(C)[C@H]3[C@@H](O)C[C@@]21C [Example 4, N-(N-(N-(N-(9H-Fluoren-9-ylmethoxycarbonyl)-L-alanyl)-L-alanyl) -L-prolyl)-L-valine [11β,21-dihydroxy-3,20-dioxo-6α-methyl-17-propionyloxy-pregna-1,4-dien-21-yl] ester] (Fmoc-AAPV-{Methylprednisolone(17-OCOEt)})",100%,4,30,16,48,42,78,66,
CC(C)[C@H](NC(=O)[C@@H]1CCCN1C(=O)[C@H](C)NC(=O)[C@H](C)NC(=O)OCC1c2ccccc2-c2ccccc21)C(=O)OCC(=O)[C@@]1(O)CC[C@H]2[C@@H]3C[C@H](C)C4=CC(=O)C=C[C@]4(C)[C@H]3[C@@H](O)C[C@@]21C [Example 22] (Fmoc-AAPV-X1),370%,6,,,,,,,
"CCCCC(=O)O[C@]1(C(=O)COC(=O)[C@@H](NC(=O)[C@@H]2CCCN2C(=O)[C@H](C)NC(=O)[C@H](C)NC(=O)OCC2c3ccccc3-c3ccccc32)C(C)C)[C@@H](C)C[C@H]2[C@@H]3CCC4=CC(=O)C=C[C@]4(C)[C@@]3(F)[C@@H](O)C[C@@]21C [Example 39, N-(N-(N-(N-(9H-Fluoren-9-yl-methoxycarbonyl)-L-alanyl)-L-alanyl) -L-prolyl)-L-valine [9α-fluoro-11β,21-dihydroxy-16β-methyl-3,20-dioxo-17-valeroyloxy-pregna-1,4-dien-21-yl] ester]",42%,0,,,,,,,
"CCC(=O)O[C@]1(C(=O)COC(=O)[C@@H](NC(=O)[C@@H]2CCCN2C(=O)[C@H](C)NC(=O)[C@H](C)NC(=O)OC(C)(C)C)C(C)C)CC[C@H]2[C@@H]3C[C@H](C)C4=CC(=O)C=C[C@]4(C)[C@H]3[C@@H](O)C[C@@]21C [Example 3, N-(N-(N-(N-(1,1-Dimethylethoxycarbonyl)-L-alanyl)-L-alanyl)-L -prolyl)-L-valine [11β,21-dihydroxy-3,20-dioxo-6α-methyl-17-propionyloxy-pregna-1,4-dien-21-yl] ester] (Boc-AAPV-{Methylprednisolone(17-OCOEt)})",160-190%,50,17,11,51,43,81,77,
"CC(C)[C@H](NC(=O)[C@@H]1CCCN1C(=O)[C@H](C)NC(=O)[C@H](C)NC(=O)OCC1c2ccccc2-c2ccccc21)C(=O)OCC(=O)[C@@]1(O)CC[C@H]2[C@@H]3CCC4=CC(=O)CC[C@]4(C)[C@H]3[C@@H](O)C[C@@]21C [Example 29, N-(N-(N-(N-(9H-Fluoren-9-yl-methoxycarbonyl)-L-alanyl)-L-alanyl) -L-prolyl)-L-valine [11β,17,21-trihydroxy-3,20-dioxo-pregn-4-en-21-yl] ester] (Fmoc-AAPV-X5)",,,,,,,,,k.k. [n.c.]
"CC(C)[C@H](NC(=O)[C@@H]1CCCN1C(=O)[C@H](C)NC(=O)[C@H](C)NC(=O)OC(C)(C)C)C(=O)OCC(=O)[C@H]1[C@H](C)C[C@H]2[C@@H]3C[C@H](F)C4=CC(=O)C=C[C@]4(C)[C@H]3[C@@H](O)C[C@@]21C [Example 32, N-(N-(N-(N-((1,1-Dimethyl)-ethoxycarbonyl)-L-alanyl)-L-alanyl)-L -prolyl)-L-valine [6α-fluoro-11β,21-dihydroxy-16α-methyl-3,20dioxo-pregna-1,4-dien-21-yl] ester] (Boc-AAPV-X2)",380%,,,,,,,,
